In patent US20250144187A1, “COMBINATION OF HYDROLASES AND ANTI-MICROORGANISM DRUGS AND USES THEREOF” (CENTRE FOR EYE AND VISION RESEARCH LIMITED, priority 2023, published 2025):
Like-named read-outs stand apart in the source and are kept apart here.

Legend:
MRSE [1] = experiment: Check board broth micro-dilution assay, tedizolid phosphate with lysozyme; type: cell-based, Staphylococcus epidermis; settings: tedizolid phosphate and lysozyme
Description: 2) Check board broth micro-dilution assays. According to standard two-fold dilution method [Sun. H et al., Nat. Commun. 11, 5263 (2020) tedizolid phosphate at different concentrations were added into fresh LB medium (or trypticase soy troth medium with 5% defibrinated horse blood) containing different concentrations of human lysozyme in 96-well plate. Then, 20 μl of 1.0×10^7 CFU/ml logarithmic cultures of MRSA or MRSE were added into each well of the plate and co-incubated overnight. Drug-free LB medium in the absence or presence of bacteria served as background control and growth control group, respectively. […] Thus, there would be a series of FICI values. In most of cases, the lowest one among these values was listed to reflect the best achieving degree of combination therapy. In terms of the lowest FICI, FICI≤0.5, 0.5<FICI<1 or FICI≥1, would indicate the combination has synergy, part synergy or non-synergy effects, respectively.

[2] = system: alkaline phosphatase extracted from MRSA; experiment: Enzyme activity of alkaline phosphatase (in vitro hydrolysis of tedizolid phosphate); type: biochemical, Staphylococcus aureus; settings: enzyme from MRSA of the combination therapy group, after 1 hour
Description: 14) Enzyme activity of alkaline phosphatase. All enzyme activities of alkaline phosphatase were analyzed according to the modified method as previously described [Zhao, X.-y et al., Nature 46, 86-90 (2009); Zhang, XC e al., Anal. Chem. 92, 5185-5190 (2020); Rosch, J. & Caparon, M. Science 304, 1513-1151 (2004); Wang. W et al., PLoS One 10, e012403512013); Ghosh, S. S et al., Circ. Res. 128, 1646-1659 (2021)]. Briefly, mid-log-phase MRSA or MRSE was treated with lysozyme, tedizolid phosphate or their combination at different concentrations. Those without any treatment served as untreated group. After incubation at 37° C. for 1 hour, all samples were collected, washed by distilled water and re-suspended in distilled water to collect bacterial suspension with an initial density of about 5.0×10^12 CFU/ml according to pre-experiment. Then, sonication lysis for 40 minutes at 4° C. and centrifugation at 18,000 g at 4° C. for 20 minutes were performed to collect these supernatants. Next, 20 μl of each supernatant was incubated with 4 μg of tedizolid phosphate. […] These slides were visualized under fluorescence microscopy and randomly selected bacteria were analyzed at ×1,500 magnification. To quantify the enzyme activity, similar protocol was performed on cell lysis supernatant instead of above-described bacterial suspension. Finally, absorption spectrums (300-800 nm) were collected and analyzed. […]

[3] = system: ocular bacterial communities in tears; experiment: Microbiome assay (16S rRNA) in ocular infection model; type: in vivo, C57BL/6 mice; settings: combination therapy; infected untreated ~3%, healthy 0.052%
MRSA [4] = experiment: Nascent protein synthesis analysis (OPP probe); type: cell-based; settings: Staphylococcus aureus, 1 h, read-out: minimal dosage of tedizolid phosphate for synthesis inhibition of half of the nascent protein
Description: 12) Nascent protein synthesis analysis. According to the previously reported method [Forester, C. M et al., Proc. Nat. […] Specifically, mid-log-phase MRSA with OD600 of 0.4 to 0.6 was treated with lysozyme, tedizolid phosphate or their combination at different concentrations at 37° C. for 1 hour. These bacteria served as related negative control groups. Positive control groups had similar protocols but with addition of 20 μM OPP. After 1 hour incubation, all bacteria were collected washed by cold PBS for 3 times and fixed by 3.7% formaldehyde in PBS, followed by re-suspension in lysis buffer containing 0.5% Triton® X-100. Then, these fixed and permeabilized cells were incubated with Click-iT™ plus OPP reaction cocktail according to the standard protocol [Forester, C. M et al., Proc. Nat. Acad. U.S.A. 115, 2353-2358 (2018)]. After 30 minutes incubation in the prevention of light at room temperature, the reaction cocktail was removed. Next, these fixed cells in 96-well plate were washed by using 200 μl/well of Click-iT® reaction rinse buffer, followed by further incubation with 1×HCS nuclear Mask™ blue stain working solution. After 30 minutes incubation in the prevention of light at room temperature, the nuclear Mask™ blue stain working solution was removed. […] Inhibition degrees of nascent proteins synthesis were expressed with fluorescence ratio (Alexa Fluor®/nuclear Mask™) as average±SD. […]

MRSA [5] = experiment: TMT proteomics analysis, tedizolid phosphate/lysozyme; type: cell-based, Staphylococcus aureus
MRSE [6] = experiment: High-throughput screening of 1953 FDA-approved compounds with human lysozyme; type: cell-based, Staphylococcus epidermis; settings: compound 25 μM + 1 mg/ml lysozyme, 24-hour
Description: 1) High-throughput screening. According to standard screening method [Zhong. […] Commun. 11, 523 (2020)], 1953 FDA-approved compounds from our drugs library at a fixed concentrations of 25 μM were screened against methicillin-resistant Staphylococcus aureus (MRSA) and Staphylococcus epidermis (a coagulase negative Staphylococci, MRSE), in combination with human lysozyme. Specifically, these compounds were added into bacterial suspensions (1×10^5 CFU/ml, in LB medium) in the absence or presence of 1 mg/ml lysozyme. LB medium without bacteria served as background group. Then, the real-time growth curvet of MRSA were monitored per hour and for 24 hours. Absorbance at 600 am (OD600) of bacterial culture at the time point of 24-hour was also measured. The inhibition ratio (%) was calculated as (ODcontrol−ODsample)/(ODcontrol−ODbackground)×100%. […] Herein, the relative and apparent inhibition ratios indicated the combination effect and potential toxicity of compound, respectively. Synergy effect was defined as the relative inhibition ratio of ≥90%. All assays were performed in triplicate.

[7] = combination therapy compared with lysozyme alone, 1 hour

Row | Structure (SMILES) | fractional inhibitory concentration index (FICI) (MRSE [1]) | tedizolid phosphate hydrolyzed [2] | proportion of Staphylococcus in tear bacterial communities [3] [%] | IC50 (MRSA [4]; combination with 0.5 mg/ml lysozyme) [µg/mL] | IC50 (MRSA [4]; monotherapy) [µg/mL] | level of FtsA (MRSA [5]; combination therapy) [fold] | level of OatA (Q2FV54) (MRSA [5]; combination therapy) | level of SepF (MRSA [5]; combination therapy) [fold] | expression of ornithine carbamoyltransferase (Q5HCR3) (MRSA [5]; [7]) [fold] | level of arginine deiminase (Q5HKU2) (MRSA [5]; [7]) [fold] | level of urease subunit alpha (A5IV71) (MRSA [5]; [7]) | phosphoglycerate kinase (Q5HQV3) level (MRSA [5]; combination therapy, 1 hour) [fold] | probable malate:quinone oxidoreductase I (P65421) level (MRSA [5]; combination therapy, 1 hour) [fold] | Growth inhibition ratio (mean ± SD, %) MRSE (MRSE [6]) [%]
1 | Cn1nnc(-c2ccc(-c3ccc(N4C[C@H](COP(=O)(O)O)OC4=O)cc3F)cn2)n1 [tedizolid phosphate, Tedizolid Phosphate] | < 0.023 | up to 65% | ~0.078 | 0.32 | 9.5 | 0.003 | significant increase | 0.5 | 0.5 | 3.9 | 1,5 fold | 0.005 | 0.12 | 
2 | C=CC1=C(C(=O)O)N2C(=O)[C@@H](NC(=O)/C(=N\O)c3csc(N)n3)[C@H]2SC1 [cefdinir, Cefdinir] |  |  |  |  |  |  |  |  |  |  |  |  |  | 20.31 ± 13.83
